Experiment [1] relates to Pseudomonas aeruginosa. The experiment is described as follows: Antibacterial activity against blaVIM-2-positive Pseudomonas aeruginosa by CLSI Etest method. It is filed as functional.
In experiment [2] the test system is Pseudomonas aeruginosa. Kind of experiment: Antibacterial activity against blaVIM-2-positive Pseudomonas aeruginosa by CLSI broth microdilution method. It is filed as functional.

SMILES strings stand for the structures. Converted amounts (≈) assume the structure as drawn.

We go through 2 molecules from ChEMBL document CHEMBL1671648, “Molecular epidemiology of outbreak-related pseudomonas aeruginosa strains carrying the novel variant blaVIM-17 metallo-beta-lactamase gene” (2009).

A word on the MIC: it is the smallest concentration in the dilution series that meets the test's criterion for growth inhibition. Consider `C[C@@H](O)[C@H]1C(=O)N2C(C(=O)O)=C(SCCNC=N)C[C@H]12` [IMIPENEM ANHYDROUS], for which the MIC in the experiment on Pseudomonas aeruginosa [1] is at least 128 µg/mL.

For `C[C@@H](O)[C@H]1C(=O)N2C(C(=O)O)=C(S[C@@H]3CN[C@H](C(=O)N(C)C)C3)[C@H](C)[C@H]12` [MEROPENEM], the MIC in the experiment on Pseudomonas aeruginosa [2] is 32 µg/mL (≈ 83.4 µM).
